Laboratory results from ChEMBL document CHEMBL1201862, “PubChem BioAssay data set” (2004).
Calls of active or inactive are those of the source. Rule as the data show it, for most assays here: actives have a measured EC50 and inactives only a lower limit.

Key:
[1] = biological target: T1, Ubiquitin-conjugating enzyme E2 N (Homo sapiens, UniProt P61088); format: functional;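 also: Dose-response confirmation in a TR-FRET assay detecting UBC13-driven polyubiquitin chain formation, inhibition measured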
T1 sequence (P61088 whole entry): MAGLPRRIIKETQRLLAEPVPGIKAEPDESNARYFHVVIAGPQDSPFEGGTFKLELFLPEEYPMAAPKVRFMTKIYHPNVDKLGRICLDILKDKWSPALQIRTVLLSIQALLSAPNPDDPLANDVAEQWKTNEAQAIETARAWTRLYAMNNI

[2] = cells; format: functional
[3] = biological target: T2, RNA-binding protein pos-1 (Caenorhabditis elegans, UniProt G5EF15); assay: inhibitors of POS-1/mex-3 RNA binding, dose response, biochemical, fluorescence polarization (AID 1964);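 also: purified POS-1 fused to maltose binding protein made in E. coli; potency of compounds blocking POS-1 binding to fluorescent RNA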
T2 sequence (G5EF15 whole entry): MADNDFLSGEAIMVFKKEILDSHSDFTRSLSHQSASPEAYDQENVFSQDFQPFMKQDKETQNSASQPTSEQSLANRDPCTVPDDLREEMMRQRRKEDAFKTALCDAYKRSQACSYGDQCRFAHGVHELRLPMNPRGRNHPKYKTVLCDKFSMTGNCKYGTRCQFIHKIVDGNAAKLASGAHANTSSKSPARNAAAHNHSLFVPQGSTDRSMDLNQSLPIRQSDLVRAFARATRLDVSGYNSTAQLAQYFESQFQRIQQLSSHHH

[4] = biological target: T3, Zinc finger protein mex-5 (Caenorhabditis elegans, UniProt Q9XUB2); assay: MEX-5/TCR-2 RNA interaction inhibitors, dose response, biochemical, C. elegans, fluorescence polarization (AID 1960)
T3 sequence (Q9XUB2 whole entry): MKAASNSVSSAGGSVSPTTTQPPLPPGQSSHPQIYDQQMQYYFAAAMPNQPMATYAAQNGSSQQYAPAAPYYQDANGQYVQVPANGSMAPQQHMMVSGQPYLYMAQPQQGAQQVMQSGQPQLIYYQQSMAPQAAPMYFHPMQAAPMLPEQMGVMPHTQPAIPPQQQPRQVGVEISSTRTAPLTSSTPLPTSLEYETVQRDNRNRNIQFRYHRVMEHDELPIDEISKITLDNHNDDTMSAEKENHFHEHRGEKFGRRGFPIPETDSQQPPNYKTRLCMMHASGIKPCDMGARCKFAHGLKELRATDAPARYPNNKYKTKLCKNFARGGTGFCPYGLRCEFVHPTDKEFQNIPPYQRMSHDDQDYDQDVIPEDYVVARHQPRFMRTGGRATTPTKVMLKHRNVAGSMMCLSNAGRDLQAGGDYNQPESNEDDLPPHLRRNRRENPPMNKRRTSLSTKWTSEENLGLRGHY

[5] = Luminescence Cell-Based Dose Response HTS to Identify Activators of Luciferase Translation or Activity in H4 […] Cells. [Related pubchem assays: 1829 (Project Summary), 1814 (Primary HTS)]; format: functional
[6] = Luminescence Cell-Based Dose Confirmation HTS to Identify Activators of 5'UTR Stem-Loop Driven Alpha-Synuclein mRNA Translation in H4 Neuroglioblastoma Cells. [Related pubchem assays: 1829 (Project Summary), 1814 (Primary HTS)]; format: functional
[7] = system: H4; assay: Luminescence Cell-Based Dose Response HTS to Identify Activators of 5'UTR Stem-Loop Driven Prion Protein mRNA Translation in H4 Neuroglioblastoma Cells. [Related pubchem assays: 1829 (Project Summary), 1814 (Primary HTS)]; format: functional; settings: Homo sapiens
[8] = HEp-2 cell cytotoxicity, dose response, cytotoxicity control for RSV inhibitor project, HTS (AID 2410); format: functional; settings: human respiratory syncytial virus
[9] = growth suppression of PTEN-null colon cells, dose response, cell-based, HCT116 PTEN knockout (AID 1047); format: functional;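 also: HCT116 colon tumor cells with PTEN knocked out; cells exposed to compound for 60 hours before readout; potency for loss of cell viability measured by luminescence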
[10] = growth suppression of beta-catenin-knockout colon cells, dose response, cell-based, HCT116, human colon tumor (AID 1045); format: functional;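 also: HCT116 colon tumor cells with beta catenin knocked out; cells exposed to compound for 60 hours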
[11] = biological target: T4, Corticotropin-releasing factor receptor 2/Corticotropin-releasing factor-binding protein (Homo sapiens, UniProt P24387+Q13324); assay: activators of CRF receptor 2 with binding protein – uHTS hits, confirmation (AID 602473); format: functional; settings: read-out: EC50_Mean
T4 sequence (Q13324 whole entry): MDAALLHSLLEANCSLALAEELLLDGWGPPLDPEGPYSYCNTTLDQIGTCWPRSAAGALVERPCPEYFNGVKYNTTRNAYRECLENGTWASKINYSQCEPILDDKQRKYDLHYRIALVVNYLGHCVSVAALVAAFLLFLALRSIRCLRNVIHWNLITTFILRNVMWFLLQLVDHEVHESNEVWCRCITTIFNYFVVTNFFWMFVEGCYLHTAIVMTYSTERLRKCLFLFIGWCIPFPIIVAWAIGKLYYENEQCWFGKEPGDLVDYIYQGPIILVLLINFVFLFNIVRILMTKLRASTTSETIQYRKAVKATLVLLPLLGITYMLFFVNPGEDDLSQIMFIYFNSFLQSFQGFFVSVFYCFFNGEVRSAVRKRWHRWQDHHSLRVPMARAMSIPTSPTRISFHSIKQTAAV
T4 sequence (P24387 whole entry): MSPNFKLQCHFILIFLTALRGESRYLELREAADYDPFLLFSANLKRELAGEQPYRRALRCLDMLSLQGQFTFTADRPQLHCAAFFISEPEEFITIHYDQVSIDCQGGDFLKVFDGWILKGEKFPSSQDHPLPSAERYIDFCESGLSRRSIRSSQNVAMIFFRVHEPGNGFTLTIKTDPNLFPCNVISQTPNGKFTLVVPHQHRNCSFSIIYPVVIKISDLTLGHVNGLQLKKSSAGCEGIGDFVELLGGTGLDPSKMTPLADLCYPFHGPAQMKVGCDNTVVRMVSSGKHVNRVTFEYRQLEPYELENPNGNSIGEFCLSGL

[12] = Luminescence Cell-Based Dose Confirmation HTS to Identify Inhibitors of Platelet Dense Granule Release. [Related pubchem assays: 1663 (Primary HTS), 1678 (Summary of Project)]; format: functional
[13] = biological target: T5, Rac GTPase-activating protein 1 (Homo sapiens, UniProt Q9H0H5); assay: MgcRacGAP GTPase-activating activity inhibitors, confirmation, biochemical, ADP Hunter fluorescence, primary and confirmatory (AID 624330); format: functional
T5 sequence (Q9H0H5 whole entry): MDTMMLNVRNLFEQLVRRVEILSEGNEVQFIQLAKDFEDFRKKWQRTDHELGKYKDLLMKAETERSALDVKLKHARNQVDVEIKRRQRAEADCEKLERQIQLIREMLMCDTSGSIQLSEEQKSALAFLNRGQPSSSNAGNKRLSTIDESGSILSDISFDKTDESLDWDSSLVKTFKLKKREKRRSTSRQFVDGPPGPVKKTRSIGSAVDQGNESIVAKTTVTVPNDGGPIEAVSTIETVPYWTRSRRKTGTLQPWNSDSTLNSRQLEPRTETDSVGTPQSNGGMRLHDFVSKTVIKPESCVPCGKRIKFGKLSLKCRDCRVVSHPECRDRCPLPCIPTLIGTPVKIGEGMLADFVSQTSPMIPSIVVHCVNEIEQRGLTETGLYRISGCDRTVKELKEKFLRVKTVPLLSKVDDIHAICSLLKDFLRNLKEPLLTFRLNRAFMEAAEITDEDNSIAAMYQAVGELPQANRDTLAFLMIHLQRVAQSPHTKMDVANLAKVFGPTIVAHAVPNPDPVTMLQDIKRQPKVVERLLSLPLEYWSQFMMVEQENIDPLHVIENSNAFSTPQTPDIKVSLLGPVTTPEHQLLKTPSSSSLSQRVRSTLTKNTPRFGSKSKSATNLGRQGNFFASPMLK

[14] = biological target: Luciferin 4-monooxygenase (Photinus pyralis, UniProt P08659); assay: firefly luciferase enzyme inhibitors, dose response, biochemical, luminescence (AID 1891)
Luciferin 4-monooxygenase, sequence (P08659 whole entry): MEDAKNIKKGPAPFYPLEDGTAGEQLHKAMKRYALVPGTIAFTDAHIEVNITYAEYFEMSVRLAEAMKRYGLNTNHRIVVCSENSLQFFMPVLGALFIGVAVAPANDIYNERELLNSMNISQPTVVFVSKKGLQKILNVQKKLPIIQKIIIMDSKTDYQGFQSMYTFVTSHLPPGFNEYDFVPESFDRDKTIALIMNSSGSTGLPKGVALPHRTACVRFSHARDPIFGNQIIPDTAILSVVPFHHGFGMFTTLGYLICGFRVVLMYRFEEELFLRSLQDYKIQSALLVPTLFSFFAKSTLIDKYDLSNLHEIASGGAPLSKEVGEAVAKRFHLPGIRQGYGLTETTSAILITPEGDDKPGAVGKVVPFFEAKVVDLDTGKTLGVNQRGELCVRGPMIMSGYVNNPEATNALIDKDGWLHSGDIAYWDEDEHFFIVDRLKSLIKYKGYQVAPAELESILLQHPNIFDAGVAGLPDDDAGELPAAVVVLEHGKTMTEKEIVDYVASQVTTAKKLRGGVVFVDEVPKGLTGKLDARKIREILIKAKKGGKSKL

Row | Structure (SMILES) | EC50 [5] | EC50 [6] | EC50 [7] | also measured
1 | CN(C)CCCN(C(=O)c1ccc(S(=O)(=O)N2CCCC2)cc1)c1nc2ccc(Br)cc2s1 |  |  |  | IC50 [1]: > 20 µM (inactive)
2 | Cc1cc(NC(=O)COC(=O)COc2ccc(C(=O)c3ccccc3)cc2)no1 |  |  |  | IC50 [2]: 21.2 µM (active)
3 | COCCCNC(=O)CCC(=O)NNc1nc2ccccc2c2nc(C)nn12 |  |  |  | EC50 [3]: > 300 µM (not active); EC50 [4]: 1.13 µM (active)
4 | COc1ccc(C[C@H]2CN3C(=NC[C@@H]3Cc3ccccc3)N2CCNC(=O)c2ccc(C)c(Br)c2)cc1 |  |  |  | IC50 [1]: > 20 µM (inactive)
5 | C=CCC1(CC=C)CCCN1C(=O)C1CCC(=O)N(CCc2ccc(OC)cc2)C1 (configuration not stated) | 10.4 µM (active) | 6.13 µM (active) | 96 µM (active) | 
6 | Cc1cccc(-c2nc(C#N)c(N3CCCCC3)o2)c1 | 20 µM (active) | 10 µM (active) | 3.9 µM (active) | 
7 | CC1=CC(C)(C)N2C(=O)C3(C(C#N)=C(N)OC4=C3C(=O)CC(C)(C)C4)c3cc(C)cc1c32 (configuration not stated) |  |  |  | EC50 [3]: > 300 µM (not active); EC50 [4]: > 300 µM (not active)
8 | CC1CCCCC1NC(=O)/C=C/c1nc2ccccc2s1 (configuration not stated) | 17.2 µM (active) | 15.9 µM (active) | 16.2 µM (active) | 
9 | Cc1c(C(=O)Nc2ccc(S(=O)(=O)N(C)C3CCN(C)CC3)cc2)oc2ccccc12 |  |  |  | CC50 [8]: 17.2 µM (active); IC50 [1]: > 20 µM (inactive)
10 | O=C1c2ccccc2C(=O)N1CCN1CCc2ccccc21 | 17.9 µM (active) | 13.7 µM (active) | 30.3 µM (active) | 
11 | Cc1c([N+](=O)[O-])c(C(=O)Nc2ccc3c(c2)OCCO3)nn1C | 11 µM (active) | 17.1 µM (active) | 9.3 µM (active) | 
12 | CO[C@H]1O[C@H](CBr)[C@@H](OC(=O)c2ccccc2)[C@H](O)[C@H]1O |  |  |  | EC50 [3]: > 300 µM (not active); EC50 [4]: > 300 µM (not active)
13 | COc1cc(C2CC(=O)Nc3[nH]nc(-c4ccccc4)c32)cc(OC)c1OC (configuration not stated) | > 120 µM (not active) | > 120 µM (not active) | > 120 µM (not active) | 
14 | CC(C)c1ccc(N(C(=O)c2ccco2)C(C(=O)NC2CCCC2)c2ccncc2)cc1 (configuration not stated) | 50.3 µM (active) | 22.1 µM (active) | > 120 µM (not active) | 
15 | CC(=O)c1ccc(OCC(=O)Nc2ccc3c(c2)CCC3)cc1 |  |  |  | IC50 [2]: > 50 µM (active)
16 | O=C(NC1CCCCC1)C(c1ccccc1F)N(Cc1ccco1)C(=O)Cn1nnc2ccccc21 (configuration not stated) |  |  |  | EC50 [9]: 16 µM (active); EC50 [10]: 16 µM (active)
17 | O=C1C2=C(SCCS2)C(=O)N1c1ccccc1 |  |  |  | EC50 [3]: > 300 µM (not active); EC50 [4]: > 300 µM (not active)
18 | N#Cc1ccc(-c2ccc(OCC3CNC(=O)O3)cc2)cc1 (configuration not stated) | 36.9 µM (active) | 0.187 µM (active) | 11.3 µM (active) | 
19 | Cc1nn(-c2ccc(Cl)nn2)c(=O)c2ccccc12 | 14.4 µM (active) | 12.5 µM (active) | 16.4 µM (active) | 
20 | Cc1[n-][o+]nc1OCCNCCNc1ccc([N+](=O)[O-])c2cccnc12 |  |  |  | EC50 [3]: 120 µM (active); EC50 [4]: 18.6 µM (active)
21 | Cc1ccc(NC(=O)c2ccc(NCCN)c([N+](=O)[O-])c2)cc1Cl |  |  |  | CC50 [8]: 24.4 µM (active); IC50 [1]: > 20 µM (inactive)
22 | CN(C)c1ccc(C=C2SC(=S)N(Cc3ccco3)C2=O)cc1 |  |  |  | EC50 [11]: 3.2 µM (active)
23 | Cc1cc(N/N=C/c2cccc(Cl)c2)nc(NCc2ccccc2)n1 |  |  |  | EC50 [9]: 35.3 µM (active); EC50 [10]: 39.6 µM (active)
24 | COc1ccc(/C=N/NC(=O)CSCc2ccc([N+](=O)[O-])cc2)cc1OC |  |  |  | IC50 [1]: > 20 µM (inactive)
25 | C/C(=N\NC(=O)c1c(Br)c(C)nn1C)c1ccc(NC(=O)C(C)Oc2ccc(Cl)cc2C)cc1 (configuration not stated) |  |  |  | EC50 [9]: 11 µM (active); EC50 [10]: 15.1 µM (active)
26 | CC(C)=C(NC(=O)c1ccccc1)C(=O)N/N=C/c1ccc(O)cc1 | 11.8 µM (active) | 11.3 µM (active) | 8.89 µM (active) | EC50 [12]: > 112 µM (not active); IC50 [13]: 102 µM (active); EC50 [14]: > 112 µM (not active)
27 | Cc1cccc(OCC(=O)NC(C)C(=O)N/N=C/c2c(OCc3ccccc3)ccc3ccccc23)c1 (configuration not stated) | 39.7 µM (active) | 9.47 µM (active) | 33.5 µM (active) | 
